# Experimental data published in publication PMC11249646, “Small-Molecule Disruptors of the Interaction between Calcium- and Integrin-Binding Protein 1 and Integrin αIIbβ3 as Novel Antiplatelet Agents” (ACS Pharmacology & Translational Science, 2024).
# Target: T1, CIB1 and αIIb interaction (CIB1-GST : F-αIIb peptide) (Homo sapiens, UniProt Q99828)
# T1 construct: made in house; host or cells: BL-21 plus RIL cells (E. coli)
# T1 sequence (Q99828 1-191): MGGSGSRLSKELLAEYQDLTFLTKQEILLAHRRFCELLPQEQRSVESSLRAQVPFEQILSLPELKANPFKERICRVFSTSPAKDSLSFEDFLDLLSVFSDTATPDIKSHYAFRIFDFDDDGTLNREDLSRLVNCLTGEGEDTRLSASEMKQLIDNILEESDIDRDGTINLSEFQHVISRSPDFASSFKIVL
# Experiment: FP assay, 1536-well qHTS format (primary and confirmatory screen)
# Type: binding
# Conditions: qHTS FP screen hits, Table S2; negative = inhibition
row,Efficacy (%),Structure (SMILES)
1,-48,C=C1C(=O)[C@@]23C(CC[C@@H]1[C@H]2O)[C@@]12CO[C@]3(O)[C@@H](O)[C@@H]1C(C)(C)CC[C@@H]2O (stereo partly drawn) [NCGC00346595-01]
2,-32,Cc1c(C)n(Cc2ccc(-c3ccccc3C(=O)O)cc2)c2ccc(C(=O)N[C@@H](C)c3ccc([N+](=O)[O-])cc3)cc12 [NCGC00347955-01]

row,Structure (SMILES),Efficacy (%)
1,Cc1cc(S(=O)(=O)Nc2cnccc2C(=O)Nc2nc(-c3ccccc3)cs2)c(C)o1.O=C(O)C(F)(F)F [NCGC00345029-02],-46

# Same assay, conditions: qHTS FP screen hits, Table S2; read-out: IC50
row,IC50 [µM],Structure (SMILES)
1,33.3,C=C1C(=O)[C@@]23C(CC[C@@H]1[C@H]2O)[C@@]12CO[C@]3(O)[C@@H](O)[C@@H]1C(C)(C)CC[C@@H]2O (stereo partly drawn) [NCGC00346595-01]
2,23.5,Cc1c(C)n(Cc2ccc(-c3ccccc3C(=O)O)cc2)c2ccc(C(=O)N[C@@H](C)c3ccc([N+](=O)[O-])cc3)cc12 [NCGC00347955-01]

row,Structure (SMILES),IC50 [µM]
1,Cc1cc(S(=O)(=O)Nc2cnccc2C(=O)Nc2nc(-c3ccccc3)cs2)c(C)o1.O=C(O)C(F)(F)F [NCGC00345029-02],38.1

# Same assay, conditions: qHTS primary screen hits, Table S2; negative = inhibition
row,Structure (SMILES),Efficacy (%)
1,COc1cccc2c1C(=O)c1c(O)c3c(c(O)c1C2=O)C[C@@](O)(C(=O)CO)CC3OC1CC(N2CCOC(OC)C2)C(O)C(C)O1 (stereo partly drawn) [NCGC00319019-01],-40
2,Cc1cc(SCc2sc(-c3ccc(Cl)cc3)nc2C)ccc1OCC(=O)O.O=C(O)C(F)(F)F [NCGC00319056-01],-32
3,Cc1ccc(S(=O)(=O)Nc2cnccc2C(=O)Nc2cccc3ccccc23)cc1.O=C(O)C(F)(F)F [NCGC00343900-01],-32
4,Cc1ccc(S(=O)(=O)Nc2cnccc2C(=O)Nc2nc(C(=O)O)cs2)cc1.O=C(O)C(F)(F)F [NCGC00343903-01],-36
5,O=C(O)C(F)(F)F.O=S(=O)(Nc1ccc(C2CCNCC2)cc1)c1ccc(NCc2ccc(Br)cc2O)cc1 [NCGC00343916-01],-31
6,COc1cccc(CNc2ccc(S(=O)(=O)Nc3ccc(C4CCNCC4)cc3)cc2)c1O.O=C(O)C(F)(F)F [NCGC00343917-01],-46
7,O=C(Nc1nc(-c2ccccc2)cs1)c1ccncc1NS(=O)(=O)c1ccc(Cl)cc1.O=C(O)C(F)(F)F [NCGC00344892-01],-48
8,O=C(Nc1nc(-c2ccccc2)cs1)c1ccncc1NS(=O)(=O)c1ccccc1.O=C(O)C(F)(F)F [NCGC00344903-01],-44
9,Cc1cccc(S(=O)(=O)Nc2cnccc2C(=O)Nc2nc(-c3ccccc3)cs2)c1.O=C(O)C(F)(F)F [NCGC00344904-01],-43
10,COc1cccc(S(=O)(=O)Nc2cnccc2C(=O)Nc2nc(-c3ccccc3)cs2)c1.O=C(O)C(F)(F)F [NCGC00344906-01],-33
11,O=C(Nc1nc(-c2ccccc2)cs1)c1ccncc1NS(=O)(=O)c1ccc(F)cc1.O=C(O)C(F)(F)F [NCGC00344931-02],-38
12,O=C(Nc1nc(-c2ccccc2)cs1)c1ccncc1NS(=O)(=O)c1ccc(F)c(F)c1.O=C(O)C(F)(F)F [NCGC00344933-01],-34
13,N#Cc1ccc(S(=O)(=O)Nc2cnccc2C(=O)Nc2nc(-c3ccccc3)cs2)cc1.O=C(O)C(F)(F)F [NCGC00344937-01],-38
14,O=C(Nc1nc(-c2ccccc2)cs1)c1ccncc1NS(=O)(=O)c1ccccc1Cl.O=C(O)C(F)(F)F [NCGC00344943-02],-50
15,O=C(Nc1nc(-c2ccccc2)cs1)c1ccncc1NS(=O)(=O)c1ccc(F)cc1Cl.O=C(O)C(F)(F)F [NCGC00345105-01],-42
16,Fc1cc(Nc2nc(-c3ccncc3)nc3ccccc23)ccc1N1CCNCC1.O=C(O)C(F)(F)F [NCGC00345204-01],-36
17,COc1cc2c(cc1OC)CN(CCc1ccc(NC(=O)c3cc(OC)c(OC)cc3NC(=O)c3cnc4ccccc4c3)cc1)CC2 [NCGC00346448-01],-30
18,COc1cccc(CNc2ccc(S(=O)(=O)Nc3nc(-c4ccccc4)cs3)cc2)c1O.O=C(O)C(F)(F)F [NCGC00346865-01],-34
19,Cc1c(-c2cccc3c(CCCOc4cccc5ccccc45)c(C(=O)O)n(Cc4cccnc4)c23)c(COc2ccc(N3CCN(S(=O)(=O)N(C)C)CC3)cc2)nn1C [NCGC00347282-01],-34

# Same assay, conditions: qHTS primary screen hits, Table S2; negative sign = inhibitory curve
row,Structure (SMILES),Curve Class
1,COc1cccc2c1C(=O)c1c(O)c3c(c(O)c1C2=O)C[C@@](O)(C(=O)CO)CC3OC1CC(N2CCOC(OC)C2)C(O)C(C)O1 (stereo partly drawn) [NCGC00319019-01],-1.4
2,Cc1cc(SCc2sc(-c3ccc(Cl)cc3)nc2C)ccc1OCC(=O)O.O=C(O)C(F)(F)F [NCGC00319056-01],-2.4
3,Cc1ccc(S(=O)(=O)Nc2cnccc2C(=O)Nc2cccc3ccccc23)cc1.O=C(O)C(F)(F)F [NCGC00343900-01],-2.4
4,COc1cccc(CNc2ccc(S(=O)(=O)Nc3ccc(C4CCNCC4)cc3)cc2)c1O.O=C(O)C(F)(F)F [NCGC00343917-01],-2.4
5,N#Cc1ccc(S(=O)(=O)Nc2cnccc2C(=O)Nc2nc(-c3ccccc3)cs2)cc1.O=C(O)C(F)(F)F [NCGC00344937-01],-2.4
6,COc1cccc(CNc2ccc(S(=O)(=O)Nc3nc(-c4ccccc4)cs3)cc2)c1O.O=C(O)C(F)(F)F [NCGC00346865-01],-2.4

# Same assay, conditions: qHTS primary screen hits, Table S2; negative sign = inhibitory curve; several classes where COUNT > 1
row,Structure (SMILES),Curve Class
1,Cc1ccc(S(=O)(=O)Nc2cnccc2C(=O)Nc2nc(C(=O)O)cs2)cc1.O=C(O)C(F)(F)F [NCGC00343903-01],-2.4
2,O=C(O)C(F)(F)F.O=S(=O)(Nc1ccc(C2CCNCC2)cc1)c1ccc(NCc2ccc(Br)cc2O)cc1 [NCGC00343916-01],-2.4
3,O=C(Nc1nc(-c2ccccc2)cs1)c1ccncc1NS(=O)(=O)c1ccccc1.O=C(O)C(F)(F)F [NCGC00344903-01],-2.2
4,Cc1cccc(S(=O)(=O)Nc2cnccc2C(=O)Nc2nc(-c3ccccc3)cs2)c1.O=C(O)C(F)(F)F [NCGC00344904-01],-2.4
5,COc1cccc(S(=O)(=O)Nc2cnccc2C(=O)Nc2nc(-c3ccccc3)cs2)c1.O=C(O)C(F)(F)F [NCGC00344906-01],-2.2
6,O=C(Nc1nc(-c2ccccc2)cs1)c1ccncc1NS(=O)(=O)c1ccc(F)c(F)c1.O=C(O)C(F)(F)F [NCGC00344933-01],-3
7,O=C(Nc1nc(-c2ccccc2)cs1)c1ccncc1NS(=O)(=O)c1ccc(F)cc1Cl.O=C(O)C(F)(F)F [NCGC00345105-01],-2.2
8,Fc1cc(Nc2nc(-c3ccncc3)nc3ccccc23)ccc1N1CCNCC1.O=C(O)C(F)(F)F [NCGC00345204-01],-2.4
9,COc1cc2c(cc1OC)CN(CCc1ccc(NC(=O)c3cc(OC)c(OC)cc3NC(=O)c3cnc4ccccc4c3)cc1)CC2 [NCGC00346448-01],-2.4
10,Cc1c(-c2cccc3c(CCCOc4cccc5ccccc45)c(C(=O)O)n(Cc4cccnc4)c23)c(COc2ccc(N3CCN(S(=O)(=O)N(C)C)CC3)cc2)nn1C [NCGC00347282-01],-3

# Same assay, conditions: qHTS primary screen hits, Table S2; read-out: IC50
row,Structure (SMILES),IC50 [µM]
1,COc1cccc2c1C(=O)c1c(O)c3c(c(O)c1C2=O)C[C@@](O)(C(=O)CO)CC3OC1CC(N2CCOC(OC)C2)C(O)C(C)O1 (stereo partly drawn) [NCGC00319019-01],10
2,Cc1cc(SCc2sc(-c3ccc(Cl)cc3)nc2C)ccc1OCC(=O)O.O=C(O)C(F)(F)F [NCGC00319056-01],56.2
3,Cc1ccc(S(=O)(=O)Nc2cnccc2C(=O)Nc2cccc3ccccc23)cc1.O=C(O)C(F)(F)F [NCGC00343900-01],50.1
4,Cc1ccc(S(=O)(=O)Nc2cnccc2C(=O)Nc2nc(C(=O)O)cs2)cc1.O=C(O)C(F)(F)F [NCGC00343903-01],50.1
5,O=C(O)C(F)(F)F.O=S(=O)(Nc1ccc(C2CCNCC2)cc1)c1ccc(NCc2ccc(Br)cc2O)cc1 [NCGC00343916-01],56.2
6,COc1cccc(CNc2ccc(S(=O)(=O)Nc3ccc(C4CCNCC4)cc3)cc2)c1O.O=C(O)C(F)(F)F [NCGC00343917-01],50.1
7,O=C(Nc1nc(-c2ccccc2)cs1)c1ccncc1NS(=O)(=O)c1ccc(Cl)cc1.O=C(O)C(F)(F)F [NCGC00344892-01],53.2
8,O=C(Nc1nc(-c2ccccc2)cs1)c1ccncc1NS(=O)(=O)c1ccccc1.O=C(O)C(F)(F)F [NCGC00344903-01],44.7
9,Cc1cccc(S(=O)(=O)Nc2cnccc2C(=O)Nc2nc(-c3ccccc3)cs2)c1.O=C(O)C(F)(F)F [NCGC00344904-01],56.2
10,COc1cccc(S(=O)(=O)Nc2cnccc2C(=O)Nc2nc(-c3ccccc3)cs2)c1.O=C(O)C(F)(F)F [NCGC00344906-01],50.1
11,O=C(Nc1nc(-c2ccccc2)cs1)c1ccncc1NS(=O)(=O)c1ccc(F)cc1.O=C(O)C(F)(F)F [NCGC00344931-02],53.2
12,O=C(Nc1nc(-c2ccccc2)cs1)c1ccncc1NS(=O)(=O)c1ccc(F)c(F)c1.O=C(O)C(F)(F)F [NCGC00344933-01],79.4
13,N#Cc1ccc(S(=O)(=O)Nc2cnccc2C(=O)Nc2nc(-c3ccccc3)cs2)cc1.O=C(O)C(F)(F)F [NCGC00344937-01],79.4
14,O=C(Nc1nc(-c2ccccc2)cs1)c1ccncc1NS(=O)(=O)c1ccccc1Cl.O=C(O)C(F)(F)F [NCGC00344943-02],64.8
15,O=C(Nc1nc(-c2ccccc2)cs1)c1ccncc1NS(=O)(=O)c1ccc(F)cc1Cl.O=C(O)C(F)(F)F [NCGC00345105-01],79.4
16,Fc1cc(Nc2nc(-c3ccncc3)nc3ccccc23)ccc1N1CCNCC1.O=C(O)C(F)(F)F [NCGC00345204-01],89.1
17,COc1cc2c(cc1OC)CN(CCc1ccc(NC(=O)c3cc(OC)c(OC)cc3NC(=O)c3cnc4ccccc4c3)cc1)CC2 [NCGC00346448-01],42.9
18,COc1cccc(CNc2ccc(S(=O)(=O)Nc3nc(-c4ccccc4)cs3)cc2)c1O.O=C(O)C(F)(F)F [NCGC00346865-01],50.1
19,Cc1c(-c2cccc3c(CCCOc4cccc5ccccc45)c(C(=O)O)n(Cc4cccnc4)c23)c(COc2ccc(N3CCN(S(=O)(=O)N(C)C)CC3)cc2)nn1C [NCGC00347282-01],30.4
